In patent US20260013502A1, “METHOD FOR TERMINATING COVER CROP GROWTH” (SUMITOMO CHEMICAL COMPANY, LIMITED, priority 2022, published 2026):
Where “and” joins values, the source holds several entries; their conditions need not be identical. Equal entries are not always repeated. Structures can show the parent of a compound that is named as a salt.

What was measured:
[1] = test system: cereal rye (Secale cereale); assay: Example 9: outdoor pot test, foliar application, termination of cereal rye growth; format: in vivo; details: glyphosate-potassium salt 1,543 g/ha; for Growth termination date / Date at the beginning of the onset of effect: cereal rye, outdoors, applied 24 days after seeding, epyrifenacil/saflufenacil 20 g/ha; for Growth termination date: death of terminal and lateral buds in all 7 pots; for Date at the beginning of the onset of effect: visual change in leaf color in all 7 pots, day relative to application; for Incremental dry matter weight: cereal rye above-ground parts, average dry matter weight at growth termination minus average untreated dry matter weight 24 days after seeding (7 pots), epyrifenacil 20 g/ha
Procedure: (§1) A plastic pot was filled with soil, and cereal rye (Secale cereale) was seeded and grown outdoors. Twenty-four days after seeding, RoundupPowerMax was diluted with water, and then the cereal rye was subjected to foliar application from above using an automatic sprayer at a spray volume of 200 L/ha to achieve an application rate of 1,543 g/ha as glyphosate-potassium salt.
(§2) At the same time, the cereal rye was similarly seeded in another plastic pot and grown. Twenty-four days after seeding, epyrifenacil emulsifiable concentrate (55 g/L) or saflufenacil suspension (341 g/L) was diluted with water containing 1% (v/v) adjuvant Agri-Dex, and then the cereal rye was subjected to foliar application from above using an automatic sprayer at a spray volume of 200 L/ha to achieve an application rate of 20 g/ha.
At the same time, the cereal rye was similarly seeded in another plastic pot and grown. Twenty-four days after seeding, the above-ground parts were harvested and the dry matter weight (hereinafter referred to as untreated dry matter weight) was measured.
(§3) The cereal rye applied with the herbicide was grown outdoors after application with the herbicide, and in case the growth was terminated, the above-ground parts were harvested at termination of the growth and the dry matter weight was measured. In this test, the growth was judged to be terminated when death of terminal and lateral buds was visually confirmed. The date at the beginning of the onset of effect, the growth termination date, and the dry matter weight at the time of growth termination are shown in Table 3. The onset of the effect was judged by visually observing the change in leaf color. Application with each herbicide was performed using seven pots. The date at the beginning of the onset of effect and the growth termination date in the table were dates on which the onset of effect and growth termination were confirmed in all seven pots, respectively. The incremental dry matter weight was the value calculated by the following formula (1).
(§4) Incremental dry matter weight=average dry matter weight at the time of growth termination−average untreated dry matter weight 24 days after seeding Formula (1): • Average dry matter weight at the time of growth termination: average value of dry matter weights of 7 pots at the time of growth termination • Average untreated dry matter weight 24 days after seeding: average value of untreated dry matter weights of 7 pots

[2] = test system: edible radish (Daikon Radish); assay: Example 8: greenhouse pot test, foliar application, termination of radish growth; format: in vivo, Raphanus sativus; details: for Dry matter weight: radish entire plant at growth termination, average of 3 pots; for Growth termination date / Date at the beginning of the onset of effect: epyrifenacil 25 g/ha applied 21 days after seeding, glyphosate-potassium salt 1,543 g/ha applied 15 days after seeding; for Date at the beginning of the onset of effect: visual change in leaf color in all 3 pots, day relative to application
Procedure: as §1, with “edible radish (Daikon Radish)” for “cereal rye (Secale cereale)”, “in a greenhouse. Fifteen” for “outdoors. Twenty-four”, “radish” for “cereal rye”
(§5) At the same time, the radish was similarly seeded in another plastic pot and grown. Twenty-one days after seeding, epyrifenacil emulsifiable concentrate (55 g/L) was diluted with water containing 1% (v/v) adjuvant Agri-Dex, and then the radish was subjected to foliar application from above using an automatic sprayer at a spray volume of 200 L/ha to achieve an application rate of 25 g/ha.
(§6) After application with the herbicide, the radish was grown in a greenhouse, and in case the growth was terminated, the entire plant was dug up at termination of the growth and the dry matter weight was measured. In this test, the growth was judged to be terminated when death of terminal and lateral buds was visually confirmed. The date at the beginning of the onset of effect, the growth termination date, and the dry matter weight at the time of growth termination are shown in Table 2. The onset of the effect was judged by visually observing the change in leaf color. Application with each herbicide was performed using three pots. The date at the beginning of the onset of effect and the growth termination date in the table were dates on which the onset of effect and growth termination were confirmed in all three pots, respectively. The dry matter weight was the average of the three pots.

[3] = test system: edible radish (Daikon Radish); assay: Example 10: outdoor pot test, foliar application, termination of radish growth; format: in vivo, Raphanus sativus; details: outdoors, applied 24 days after seeding, epyrifenacil 20 g/ha, glyphosate-potassium salt 1,543 g/ha; for Growth termination date: death of terminal and lateral buds in all 7 pots; for Date at the beginning of the onset of effect: visual change in leaf color in all 7 pots, day relative to application
Procedure: as §1, with “edible radish (Daikon Radish)” for “cereal rye (Secale cereale)”, “radish” for “cereal rye”, “1, 543” for “1,543”
as §5, with “Twenty-four” for “Twenty-one”, “[…]” for “1%”, “20” for “25”
At the same time, the radish was similarly seeded in another plastic pot and grown. Twenty-four days after seeding, the entire plant was dug up and the dry matter weight (hereinafter referred to as untreated dry matter weight) was measured.
as §3, with “radish” for “cereal rye”, “entire plant was dug up” for “above-ground parts were harvested”, “4.” for “3.”, “(2).” for “(1).”
as §4, with “(2):” for “(1):”

[4] = test system: cereal rye (Secale cereale); assay: Example 7: greenhouse pot test, foliar application, termination of cereal rye growth; format: in vivo; details: for Dry matter weight: cereal rye above-ground parts at growth termination, average of 3 pots
Procedure: as §1, with “in a greenhouse. Fifteen” for “outdoors. Twenty-four”
as §2, with “and grown. Twenty-one days after” for “and grown. Twenty-four days after”, “rate of 25 g/ha.” for “rate of 20 g/ha.”
as §6, with “cereal rye” for “radish”, “above-ground parts were harvested” for “entire plant was dug up”, “1.” for “2.”

[5] = test system: cereal rye (Secale cereale); assay: Example 1: outdoor boom-sprayer foliar application to overwintered cereal rye at heading stage; format: in vivo; details: 40 g/ha epyrifenacil, EC 55 g/L, 0.5% MSO + 1% ammonium sulfate, 189 L/ha
Procedure: At the heading stage of cereal rye (Secale cereale) seeded in the autumn and overwintered outdoors after corn cultivation, epyrifenacil emulsifiable concentrate (55 g/L) was diluted with water containing 0.5% (v/v) adjuvant MSO+1% (w/v) ammonium sulfate, and the cereal rye is subjected to foliar application using a boom sprayer at a spray volume of 189 L/ha to deliver 40 g/ha of epyrifenacil.

[6] = test system: barley (Hordeum vulgare); assay: Example 3: outdoor boom-sprayer foliar application to overwintered barley at internode elongation stage; format: in vivo; details: 30 g/ha epyrifenacil, EC 55 g/L, 0.5% Agri-Dex + 1% ammonium sulfate, 250 L/ha
Procedure: At the internode elongation stage of barley (Hordeum vulgare) seeded in the autumn and overwintered outdoors in a corn cultivation trace, epyrifenacil emulsifiable concentrate (55 g/L) was diluted with water containing 0.5% (v/v) adjuvant Agri-Dex+1% (w/v) ammonium sulfate, and the barley is subjected to foliar application using a boom sprayer at a spray volume of 250 L/ha to deliver 30 g/ha of epyrifenacil.

[7] = test system: radish (Tillage Radish); assay: Example 2: outdoor boom-sprayer foliar application to overwintered radish at bolting stage; format: in vivo, Raphanus sativus; details: 20 g/ha epyrifenacil, EC 55 g/L, 0.5% Agri-Dex + 1% ammonium sulfate, 150 L/ha
Procedure: At the bolting stage of radish (Tillage Radish) seeded in the autumn and overwintered outdoors after soybean cultivation, epyrifenacil emulsifiable concentrate (55 g/L) was diluted with water containing 0.5% (v/v) adjuvant Agri-Dex+1% (w/v) ammonium sulfate, and the radish is subjected to foliar application using a boom sprayer at a spray volume of 150 L/ha to deliver 20 g/ha of epyrifenacil.

[8] = epyrifenacil 25 g/ha, glyphosate-potassium salt 1,543 g/ha
[9] = epyrifenacil 25 g/ha, glyphosate-potassium salt 1,543 g/ha, listed as epyrifenacil
[10] = radish, greenhouse, death of terminal and lateral buds in all 3 pots
[11] = cereal rye, greenhouse, death of terminal and lateral buds in all 3 pots, epyrifenacil/saflufenacil 25 g/ha applied 21 days after seeding, glyphosate-potassium salt 1,543 g/ha applied 15 days after seeding
[12] = listed as glyphosate-potassium salt

| Structure (SMILES) | Growth termination date [1] | Date at the beginning of the onset of effect [1] | Dry matter weight [2, 8] [kg/ha] | Dry matter weight [2, 9] | Growth termination date [2, 10] | Date at the beginning of the onset of effect ([2]; radish, greenhouse) | Growth termination date [3] | Date at the beginning of the onset of effect [3] | Dry matter weight [4, 8] | Dry matter weight [4, 9] | Growth termination date [4, 11] | Death of the cereal rye observed [5] [days after application] | Death of the barley observed [6] [days after application] | Death of the radish observed [7] [days after application] | Incremental dry matter weight [1] [Kg/ha] | Incremental dry matter weight [1, 12] | Growth termination date [1, 12] [Days after application] | Growth termination date (days after application) ([2]; radish, greenhouse, death of terminal and lateral buds in all 3 pots, epyrifenacil 25 g/ha, glyphosate-potassium salt 1,543 g/ha) | Growth termination date (days after application) ([4]; cereal rye, greenhouse, death of terminal and lateral buds in all 3 pots, epyrifenacil 25 g/ha, glyphosate-potassium salt 1,543 g/ha) | Date at the beginning of the onset of effect ([4]; cereal rye, greenhouse, visual change in leaf color in all 3 pots, day relative to application, epyrifenacil/saflufenacil 25 g/ha applied 21 days after seeding, glyphosate-potassium salt 1,543 g/ha applied 15 days after seeding) |
| --- | --- | --- | --- | --- | --- | --- | --- | --- | --- | --- | --- | --- | --- | --- | --- | --- | --- | --- | --- | --- |
| CCOC(=O)COc1ncccc1Oc1cc(-n2c(=O)cc(C(F)(F)F)n(C)c2=O)c(F)cc1Cl [Epyrifenacil, epyrifenacil] | 7 Days after application and 7 Days Days after application | Day after | 905 | biomass was greater | 24 Days after Days after seeding | On the day of | 7 Days after application and 7 Days after Days after application | Day after | 1,118 kg/ha | biomass was greater | 24 Days Days after seeding | 4 | 4 | 3 | – | – | – | – | – | – |
| O=C(O)CNCP(=O)(O)O [Glyphosate-potassium salt, glyphosate-potassium salt] | 21 Days Days after application | 7 Days after Days after application | 360 | – | 24 Days after Days after seeding | 7 Days after Days after application | failed to terminate the growth | 10 Days Days after application | 595 kg/ha | – | 24 Days Days after seeding | – | – | – | −42 | reduced biomass | 21 | seeding (9 days after application | seeding (9 days after application | 5 Days after Days after application |
| CC(C)N(C)S(=O)(=O)NC(=O)c1cc(-n2c(=O)cc(C(F)(F)F)n(C)c2=O)c(F)cc1Cl [Saflufenacil, saflufenacil] | failed to terminate the growth | Day after | – | – | – | – | – | – | – | – | failed to terminate the growth | – | – | – | – | – | – | – | – | – |
